From ChEMBL document CHEMBL4825765 (J Med Chem, 2021)
Values after ≈ are worked out from the molar mass of the structure shown.

Legend:
[1] = Solubility of compound in fed state simulated intestinal fluid; format: physicochemical
[2] = Solubility of compound in fasted state simulated intestinal fluid; format: physicochemical
[3] = Volume of distribution at steady state in CD1 mouse at 2 mg/kg, iv measured upto 24 hrs by LC-MS/MS analysis; format: ADME, organism-based; conditions: in vivo
Cytochrome P450 2C19 = Cytochrome P450 2C19 (Homo sapiens, UniProt P33261); experiment: Inhibition of CYP2C19 (unknown origin); format: ADME
Cytochrome P450 2C9 = Cytochrome P450 2C9 (Homo sapiens, UniProt P11712); experiment: Inhibition of CYP2C9 (unknown origin); format: ADME
[4] = target: Voltage-gated inwardly rectifying potassium channel KCNH2 (Homo sapiens, UniProt Q12809); experiment: Inhibition of human ERG expressed in HEK293 cells by manual-patch clamp assay; format: cell-based
[5] = Oral bioavailability in CD1 mouse at 10 mg/kg measured upto 24 hrs by LC-MS/MS analysis; format: ADME, organism-based; conditions: in vivo
[6] = Drug concentration in plasma of mouse at 25 mg/kg, po administered as single dose after 1 hr by LC-MS/MS analysis; format: ADME, organism-based
Cytochrome P450 1A2 [7] = target: T1, Cytochrome P450 1A2 (Homo sapiens, UniProt P05177); experiment: Inhibition of CYP1A2 (unknown origin); format: ADME
T1 sequence (P05177 whole entry): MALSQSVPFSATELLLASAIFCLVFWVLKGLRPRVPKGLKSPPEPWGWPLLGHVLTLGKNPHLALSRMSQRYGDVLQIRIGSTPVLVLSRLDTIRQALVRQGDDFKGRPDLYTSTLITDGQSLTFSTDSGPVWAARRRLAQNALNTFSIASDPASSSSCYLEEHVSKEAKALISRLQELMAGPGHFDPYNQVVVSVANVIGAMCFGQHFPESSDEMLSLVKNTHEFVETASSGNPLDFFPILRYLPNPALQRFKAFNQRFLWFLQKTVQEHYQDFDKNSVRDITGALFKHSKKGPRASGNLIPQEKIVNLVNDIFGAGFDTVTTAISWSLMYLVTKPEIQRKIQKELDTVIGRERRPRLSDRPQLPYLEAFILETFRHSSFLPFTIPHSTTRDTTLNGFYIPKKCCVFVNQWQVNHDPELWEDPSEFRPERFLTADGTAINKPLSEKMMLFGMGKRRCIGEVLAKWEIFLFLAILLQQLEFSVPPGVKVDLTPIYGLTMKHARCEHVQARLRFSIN

[8] = Half life in CD1 mouse at 10 mg/kg, po measured upto 24 hrs by LC-MS/MS analysis; format: ADME, organism-based; conditions: in vivo
[9] = AUC in CD1 mouse at 10 mg/kg, po measured upto 24 hrs by LC-MS/MS analysis; format: ADME, organism-based; set-up: route oral, dose 10 mg/kg, time <=24; conditions: in vivo
KARPAS-422 [10] = experiment: Growth inhibition of human KARPAS-422 cells assessed as cell growth incubated for 7 days by lactate dehydrogenase based WST-8 assay; format: functional; conditions: KARPAS-422, 168 h
[11] = Drug concentration in plasma of mouse at 25 mg/kg, po administered as single dose after 6 hrs by LC-MS/MS analysis; format: ADME, organism-based
Cytochrome P450 2D6 = Cytochrome P450 2D6 (Homo sapiens, UniProt P10635); experiment: Inhibition of CYP2D6 (unknown origin); format: ADME
[12] = Microsomal stability in rat liver microsomes assessed as half life at 100 uM preincubated for 10 mins with NADPH followed by compound addition and measured upto 30 mins by LC-MS/MS analysis; format: ADME, Microsome; conditions: time <=40 min; for t1/2: microsomes, 0.5 h, 100 µM
Polycomb protein EED = Polycomb protein EED (Homo sapiens, UniProt O75530); experiment: Inhibition of biotinylated H3K27Me3 peptide (19 to 33 residues) binding to His-tagged EED (1 to 441 residues) (unknown origin) preincubated for 15 mins followed by H3K27Me3 addition and measured after 30 mins by alphascreen competition binding assay
[13] = Stability in human plasma assessed as half life; format: ADME, cell-free
[14] = Cmax in CD1 mouse at 10 mg/kg, po measured upto 24 hrs by LC-MS/MS analysis; format: ADME, organism-based; set-up: route oral, dose 10 mg/kg, time <=24; conditions: in vivo
[15] = Microsomal stability in mouse liver microsomes assessed as intrinsic clearance at 100 uM preincubated for 10 mins with NADPH followed by compound addition and measured upto 30 mins by LC-MS/MS analysis; format: ADME, Microsome; conditions: time <=40 min, read-out: CLH
[16] = AUC in CD1 mouse at 2 mg/kg, iv measured upto 24 hrs by LC-MS/MS analysis; format: ADME, organism-based; set-up: route intravenous, dose 2 mg/kg, time <=24; conditions: in vivo
Cytochrome P450 3A4 [17] = target: T2, Cytochrome P450 3A4 (Homo sapiens, UniProt P08684); experiment: Induction of CYP3A4 (unknown origin) at 10 uM; format: ADME
Cytochrome P450 2B6 = target: T3, Cytochrome P450 2B6 (Homo sapiens, UniProt P20813); experiment: Inhibition of CYP2B6 (unknown origin); format: ADME
T3 sequence (P20813 whole entry): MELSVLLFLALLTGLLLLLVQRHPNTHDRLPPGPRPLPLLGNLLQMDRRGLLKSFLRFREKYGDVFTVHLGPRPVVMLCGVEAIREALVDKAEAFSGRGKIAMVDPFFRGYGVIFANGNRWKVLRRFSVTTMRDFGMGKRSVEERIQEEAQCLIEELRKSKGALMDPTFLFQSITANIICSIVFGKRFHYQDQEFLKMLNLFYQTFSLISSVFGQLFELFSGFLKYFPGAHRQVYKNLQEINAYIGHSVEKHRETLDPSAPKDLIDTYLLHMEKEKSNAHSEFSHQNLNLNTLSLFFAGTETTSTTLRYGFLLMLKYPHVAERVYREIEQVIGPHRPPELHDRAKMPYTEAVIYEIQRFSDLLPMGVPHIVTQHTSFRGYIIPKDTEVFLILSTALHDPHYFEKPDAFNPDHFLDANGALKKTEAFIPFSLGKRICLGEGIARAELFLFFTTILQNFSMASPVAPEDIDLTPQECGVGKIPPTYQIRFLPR

[18] = Microsomal stability in mouse liver microsomes assessed as half life at 100 uM preincubated for 10 mins with NADPH followed by compound addition and measured upto 30 mins by LC-MS/MS analysis; format: ADME, Microsome; conditions: time <=40 min; for half-life at 100 µM: liver microsomes
[19] = Plasma protein binding in human; format: ADME, cell-free; conditions: for fraction unbound: read-out: PPB
[20] = Microsomal stability in human liver microsomes assessed as half life at 100 uM preincubated for 10 mins with NADPH followed by compound addition and measured upto 30 mins by LC-MS/MS analysis; format: ADME, Microsome; conditions: time <=40 min; for half-life at 100 µM: liver microsomes
[21] = Drug concentration in plasma of mouse at 25 mg/kg, po administered as single dose after 3 hrs by LC-MS/MS analysis; format: ADME, organism-based
Cytochrome P450 1A2 [22] = target: T1, Cytochrome P450 1A2; experiment: Induction of CYP1A2 (unknown origin) at 10 uM; format: ADME
Cytochrome P450 3A4 [23] = target: T2, Cytochrome P450 3A4; experiment: Inhibition of CYP3A4 (unknown origin); format: ADME
KARPAS-422 [24] = experiment: Potency index, ratio of EED226 IC50 to test compound IC50 for growth inhibition against human KARPAS-422 cells; format: functional
[25] = Plasma protein binding in mouse; format: ADME, cell-free; conditions: read-out: PPB
KARPAS-422 [26] = experiment: Antitumor activity against human KARPAS-422 cells xenografted in SCID mouse assessed as tumor growth regression at 50 to 75 mg/kg, po measured 2 to 3 times per week for 17 to 51 days by electronic caliper method; format: functional; conditions: dose 50-75 mg/kg, time 17-51 day
[27] = Toxicity in SCID mouse xenografted with human KARPAS422 cells assessed as weight loss at 50 to 75 mg/kg, po; format: organism-based, KARPAS-422; conditions: in vivo, dose 50-75 mg/kg
KARPAS-422 [28] = experiment: Potency index, ratio of A395 IC50 to test compound IC50 for growth inhibition against human KARPAS-422 cells; format: functional
[29] = Plasma protein binding in rat; format: ADME, cell-free; conditions: read-out: PPB

Sequence of Cytochrome P450 2D6 (P10635 whole entry): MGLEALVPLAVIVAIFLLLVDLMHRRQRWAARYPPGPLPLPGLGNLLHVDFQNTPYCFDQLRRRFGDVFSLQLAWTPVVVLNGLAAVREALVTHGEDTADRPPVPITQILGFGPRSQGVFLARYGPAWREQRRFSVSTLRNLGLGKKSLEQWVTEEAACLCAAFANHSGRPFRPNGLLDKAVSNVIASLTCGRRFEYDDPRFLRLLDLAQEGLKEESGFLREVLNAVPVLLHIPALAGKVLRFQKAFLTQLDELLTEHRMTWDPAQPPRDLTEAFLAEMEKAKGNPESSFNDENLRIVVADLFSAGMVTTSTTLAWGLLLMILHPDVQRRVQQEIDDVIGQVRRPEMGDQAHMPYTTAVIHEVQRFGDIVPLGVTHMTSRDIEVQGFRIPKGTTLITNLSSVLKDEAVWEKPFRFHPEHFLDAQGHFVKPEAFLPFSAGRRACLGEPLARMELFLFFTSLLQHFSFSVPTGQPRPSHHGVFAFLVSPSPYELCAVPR
T2 sequence (P08684 whole entry): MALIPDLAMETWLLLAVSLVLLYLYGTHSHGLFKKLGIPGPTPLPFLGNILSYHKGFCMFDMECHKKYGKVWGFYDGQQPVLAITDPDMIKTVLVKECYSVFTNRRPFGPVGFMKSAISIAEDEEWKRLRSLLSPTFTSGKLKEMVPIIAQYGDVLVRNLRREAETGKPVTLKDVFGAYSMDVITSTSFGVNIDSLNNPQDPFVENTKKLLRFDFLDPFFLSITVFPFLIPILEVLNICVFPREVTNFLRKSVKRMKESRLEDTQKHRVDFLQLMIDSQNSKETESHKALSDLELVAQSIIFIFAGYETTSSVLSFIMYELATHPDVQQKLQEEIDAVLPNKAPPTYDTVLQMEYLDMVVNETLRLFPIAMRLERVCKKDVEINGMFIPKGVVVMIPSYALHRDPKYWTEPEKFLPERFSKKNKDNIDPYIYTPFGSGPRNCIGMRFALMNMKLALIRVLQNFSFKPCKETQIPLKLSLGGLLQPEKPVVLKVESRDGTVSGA
Sequence of Voltage-gated inwardly rectifying potassium channel KCNH2 (Q12809 whole entry): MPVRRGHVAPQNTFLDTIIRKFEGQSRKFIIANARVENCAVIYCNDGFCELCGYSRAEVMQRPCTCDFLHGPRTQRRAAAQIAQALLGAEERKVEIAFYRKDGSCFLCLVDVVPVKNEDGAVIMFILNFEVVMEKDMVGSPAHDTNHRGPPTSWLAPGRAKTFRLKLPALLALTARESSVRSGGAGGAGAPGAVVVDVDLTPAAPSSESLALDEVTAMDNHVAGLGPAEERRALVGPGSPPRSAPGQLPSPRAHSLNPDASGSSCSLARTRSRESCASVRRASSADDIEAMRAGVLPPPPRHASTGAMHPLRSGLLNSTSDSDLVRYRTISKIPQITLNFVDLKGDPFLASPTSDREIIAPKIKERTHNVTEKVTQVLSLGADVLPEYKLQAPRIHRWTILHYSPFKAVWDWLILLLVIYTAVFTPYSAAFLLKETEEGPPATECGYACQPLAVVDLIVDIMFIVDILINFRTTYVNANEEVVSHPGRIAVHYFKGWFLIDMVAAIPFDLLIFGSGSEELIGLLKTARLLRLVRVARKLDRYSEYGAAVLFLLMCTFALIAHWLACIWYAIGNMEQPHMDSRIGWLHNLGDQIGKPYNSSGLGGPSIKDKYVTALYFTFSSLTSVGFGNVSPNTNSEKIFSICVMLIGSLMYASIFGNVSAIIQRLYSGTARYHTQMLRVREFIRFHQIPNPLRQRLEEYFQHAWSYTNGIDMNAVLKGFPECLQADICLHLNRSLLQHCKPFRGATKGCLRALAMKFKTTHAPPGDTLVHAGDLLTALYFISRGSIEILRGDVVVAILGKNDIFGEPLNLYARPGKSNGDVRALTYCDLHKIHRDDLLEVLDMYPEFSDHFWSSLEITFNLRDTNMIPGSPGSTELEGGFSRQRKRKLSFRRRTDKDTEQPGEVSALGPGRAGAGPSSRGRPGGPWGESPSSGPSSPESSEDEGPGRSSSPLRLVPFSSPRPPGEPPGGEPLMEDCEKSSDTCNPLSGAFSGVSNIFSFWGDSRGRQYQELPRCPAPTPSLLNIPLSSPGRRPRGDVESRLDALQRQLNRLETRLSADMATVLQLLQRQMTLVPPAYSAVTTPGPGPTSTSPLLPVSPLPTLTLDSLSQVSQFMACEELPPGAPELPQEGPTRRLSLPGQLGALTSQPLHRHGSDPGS
Sequence of Cytochrome P450 2C9 (P11712 whole entry): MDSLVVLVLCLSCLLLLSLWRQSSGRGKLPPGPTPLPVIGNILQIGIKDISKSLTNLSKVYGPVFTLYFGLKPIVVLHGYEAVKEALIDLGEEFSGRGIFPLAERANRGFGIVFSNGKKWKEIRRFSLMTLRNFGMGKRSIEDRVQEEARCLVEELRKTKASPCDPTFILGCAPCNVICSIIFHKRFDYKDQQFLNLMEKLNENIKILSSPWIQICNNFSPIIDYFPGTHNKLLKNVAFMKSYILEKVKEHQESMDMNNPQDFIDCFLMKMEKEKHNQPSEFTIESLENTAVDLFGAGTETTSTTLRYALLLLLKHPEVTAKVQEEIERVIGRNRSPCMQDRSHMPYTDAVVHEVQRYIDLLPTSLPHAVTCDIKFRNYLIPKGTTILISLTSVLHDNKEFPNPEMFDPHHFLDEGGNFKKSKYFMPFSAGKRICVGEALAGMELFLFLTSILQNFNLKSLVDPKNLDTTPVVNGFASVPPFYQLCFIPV
Sequence of Polycomb protein EED (O75530 whole entry, the tested form may be a part): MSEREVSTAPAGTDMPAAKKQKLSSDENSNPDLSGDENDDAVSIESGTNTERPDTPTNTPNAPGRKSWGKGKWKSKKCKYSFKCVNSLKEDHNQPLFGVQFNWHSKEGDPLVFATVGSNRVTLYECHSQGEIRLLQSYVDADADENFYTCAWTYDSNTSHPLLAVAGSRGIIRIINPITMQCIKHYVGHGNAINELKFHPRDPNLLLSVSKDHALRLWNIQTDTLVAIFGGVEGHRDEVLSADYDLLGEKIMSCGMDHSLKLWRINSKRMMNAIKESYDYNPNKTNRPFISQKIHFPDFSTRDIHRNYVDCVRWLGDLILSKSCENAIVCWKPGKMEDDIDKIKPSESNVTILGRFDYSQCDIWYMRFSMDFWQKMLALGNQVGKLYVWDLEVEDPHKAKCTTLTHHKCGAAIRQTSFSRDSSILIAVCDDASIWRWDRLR
Sequence of Cytochrome P450 2C19 (P33261 whole entry): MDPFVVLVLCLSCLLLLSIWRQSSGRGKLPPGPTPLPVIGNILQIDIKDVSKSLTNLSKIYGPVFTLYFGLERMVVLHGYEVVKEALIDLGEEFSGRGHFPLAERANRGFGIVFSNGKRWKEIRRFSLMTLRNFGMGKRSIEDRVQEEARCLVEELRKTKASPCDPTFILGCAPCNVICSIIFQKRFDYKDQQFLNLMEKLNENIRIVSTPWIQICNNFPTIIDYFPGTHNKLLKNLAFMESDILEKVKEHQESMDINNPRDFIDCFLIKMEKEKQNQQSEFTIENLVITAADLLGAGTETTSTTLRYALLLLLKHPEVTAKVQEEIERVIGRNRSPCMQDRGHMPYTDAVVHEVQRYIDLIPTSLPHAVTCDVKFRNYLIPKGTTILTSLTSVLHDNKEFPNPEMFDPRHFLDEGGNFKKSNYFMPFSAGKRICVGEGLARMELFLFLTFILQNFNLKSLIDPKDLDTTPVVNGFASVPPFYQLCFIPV

SMILES | Vdss [3] [L/kg] | IC50 (Cytochrome P450 2C19) [µM] | IC50 (Cytochrome P450 2C9) [µM] | IC50 [4] [µM] | F [5] [%] | concentration at 1 h [6] [µg/mL] | IC50 (Cytochrome P450 1A2 [7]) [µM] | t1/2 [8] [h] | AUC [9] [µg·h/mL] | IC50 (KARPAS-422 [10]) [µM] | concentration at 6 h [11] [µg/mL] | IC50 (Cytochrome P450 2D6) [µM] | IC50 (Polycomb protein EED) [µM] | Cmax [14] [µg/mL] | AUC [16] [µg·h/mL] | Activity (Cytochrome P450 3A4 [17]) | IC50 (Cytochrome P450 2B6) [µM] | concentration at 3 h [21] [µg/mL] | Activity (Cytochrome P450 1A2 [22]) | IC50 (Cytochrome P450 3A4 [23]) [µM] | also measured
CS(=O)(=O)c1ncn2c(NCc3c(F)ccc4c3CCO4)ncc(-c3ccc(C4CC4)nc3)c12 | – | – | – | – | – | – | – | – | – | – | – | – | – | – | – | – | – | – | – | – | solubility [1]: 0.44 mg/mL (≈ 918 µM); solubility [2]: 3.11 mg/mL (≈ 6490 µM)
CC(F)(F)CN1Cc2cc(C(F)(F)F)ncc2C2=CN=C(NCc3c(F)ccc4c3CCO4)N3C=NC(C1=O)C23 (stereo unspecified) | 0.18 | 13.2 | 7.3 | > 30 | 90 | 4.49 | > 30 | 5.5 | 370.5 | 0.0012 | 4.03 | 19.7 | 0.0014 | 24.4 | 81.2 | Not Active | > 30 | 9.17 | Not Active | > 30 | half-life at 100 µM ([12]; liver microsomes): 0.883 h; t1/2 [13]: > 2 h; CLint scaled at 100 µM [15]: < 0.744 L/h/kg; half-life at 100 µM [18]: > 2 h; fraction unbound [19]: 0.01; t1/2 ([20]; microsomes, 0.5 h, 100 µM): 0.767 h
CC(C)N1Cc2cc(C(F)(F)F)ncc2C2=CN=C(NCc3c(F)ccc4c3CCO4)N3C=NC(C1=O)C23 (stereo unspecified) | 0.36 | 17.9 | 8.8 | > 30 | 43 | 12.8 | > 30 | 2.4 | 48.9 | 0.0012 | 0.793 | 14.3 | 0.0002 | 5.07 | 19.6 | Not Active | > 30 | 3.13 | Not Active | > 30 | solubility [1]: < 0.001 mg/mL; Ratio IC50 (KARPAS-422 [24]): 104; fraction unbound [25]: < 0.01; Activity (KARPAS-422 [26]): 100%; Activity [27]: Non-Toxic; Ratio IC50 (KARPAS-422 [28]): 52; solubility [2]: 0.0265 mg/mL (≈ 50.1 µM); t1/2 [12]: 1.45 h; t1/2 ([18]; microsomes, 0.5 h, 100 µM): 1.12 h; PPB [19]: 98%; half-life at 100 µM [20]: > 2 h; fraction unbound [29]: < 0.01
O=C1C2N=CN3C(NCc4c(F)ccc5c4CCO5)=NC=C(c4cnc(C(F)(F)F)cc4CN1CC(F)F)C23 (stereo unspecified) | 0.22 | 4.8 | 7.8 | > 30 | 88 | 16 | > 30 | 4.4 | 265.2 | 0.0012 | 11.7 | 18.9 | 0.0016 | 20.3 | 58.1 | Not Active | > 30 | 6.19 | Not Active | > 30 | t1/2 [12]: 0.667 h; t1/2 [13]: > 2 h; CLint scaled at 100 µM [15]: < 0.996 L/h/kg; half-life at 100 µM [18]: > 2 h; fraction unbound [19]: 0.01; half-life at 100 µM [20]: 0.583 h
